# Patent US20260285850A1, “SUBSTITUTED OXAZOLIDINONES AND IMIDAZOLINONES AS HERBICIDES” (FMC CORPORATION, priority 2023, published 2026)
# Assays:
# Type in all cases: in vivo
# [1] = test system: oat, wild (wild oat, Avena fatua); assay: Test A postemergence application, visual injury rating 0-100
# Method in brief: (§1)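 Compound in a non-phytotoxic, surfactant-containing solvent is applied either as a directed soil spray before seedlings emerge or onto emerged plants 2-10 cm tall; pots hold a loam-sand blend. Plants grow 10 days under greenhouse conditions and are rated by eye against untreated controls (0 no effect, 100 complete control).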
# [2] = test system: wheat (Triticum aestivum); assay: as above
# Method in brief: as §1
# [3] = test system: ragweed (common ragweed, Ambrosia artemisiifolia); assay: as above
# Method in brief: as §1
# corn (Zea mays) [4] = assay: as above
# Method in brief: as §1
# [5] = test system: horseweed (Erigeron canadensis); assay: as above
# Method in brief: as §1
# [6] = test system: galium (catchweed bedstraw, Galium aparine); assay: as above
# Method in brief: as §1
# kochia (Bassia scoparia) [7] = assay: as above
# Method in brief: as §1
# soybean (Glycine max) [8] = assay: as above
# Method in brief: as §1
# [9] = test system: barnyardgrass (Echinochloa crus-galli); assay: as above
# Method in brief: as §1
# [10] = test system: green foxtail (Setaria viridis); assay: as above
# Method in brief: as §1
# [11] = test system: blackgrass (Alopecurus myosuroides); assay: as above
# Method in brief: as §1
# [12] = test system: ryegrass, Italian (italian ryegrass, Lolium multiflorum); assay: as above
# Method in brief: as §1
# [13] = test system: palmer (palmer amaranth, palmer pigweed, Amaranthus palmeri); assay: as above
# Method in brief: as §1
# [14] = test system: barnyardgrass (Echinochloa crusgalli); assay: Test B flooded paddy test, visual plant response rating 0-100; conditions: 250 g ai/ha, Flood, applied to paddy water, evaluated after 13 days
# Method in brief: (§2)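 Visual scores versus untreated controls were recorded 13 days after treatment of greenhouse-held plants. At the 2-leaf stage, pots were flooded 3 cm above the soil surface and compounds added straight to the water.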
# [15] = test system: sedge, umbrella (small-flower umbrella sedge, Cyperus difformis); assay: as above; conditions: 250 g ai/ha, Flood, applied to paddy water, evaluated after 13 days
# Method in brief: as §2
# rice (Oryza sativa) = assay: as above; conditions: 250 g ai/ha, Flood, applied to paddy water, evaluated after 13 days
# Method in brief: as §2
# [16] = test system: ducksalad (Heteranthera limosa); assay: as above; conditions: 250 g ai/ha, Flood, applied to paddy water, evaluated after 13 days
# Method in brief: as §2
# [17] = test system: oat, wild (wild oat, Avena fatua); assay: Test A preemergence soil spray, visual injury rating 0-100; conditions: 10 days
# Method in brief: as §1
# [18] = test system: wheat (Triticum aestivum); assay: as above; conditions: 10 days
# Method in brief: as §1
# [19] = test system: ragweed (common ragweed, Ambrosia artemisiifolia); assay: as above; conditions: 10 days
# Method in brief: as §1
# corn (Zea mays) [20] = assay: as above; conditions: 10 days
# Method in brief: as §1
# kochia (Bassia scoparia) [21] = assay: as above; conditions: 10 days
# Method in brief: as §1
# soybean (Glycine max) [22] = assay: as above; conditions: 10 days
# Method in brief: as §1
# [23] = test system: barnyardgrass (Echinochloa crus-galli); assay: as above; conditions: 10 days
# Method in brief: as §1
# [24] = test system: green foxtail (Setaria viridis); assay: as above; conditions: 10 days
# Method in brief: as §1
# [25] = test system: blackgrass (Alopecurus myosuroides); assay: as above; conditions: 10 days
# Method in brief: as §1
# [26] = test system: ryegrass, Italian (italian ryegrass, Lolium multiflorum); assay: as above; conditions: 10 days
# Method in brief: as §1
# [27] = test system: palmer (palmer amaranth, palmer pigweed, Amaranthus palmeri); assay: as above; conditions: 62 g ai/ha, 10 days, 0 = no effect, 100 = complete control
# Method in brief: as §1
# [28] = 62 g ai/ha, postemergence, 10 days, 0 = no effect, 100 = complete control
# [29] = Postemergence, 16 g ai/ha, greenhouse 10 days, 0 no effect, 100 complete control
# [30] = 62 g ai/ha, 0 = no effect, 100 = complete control
smiles,measurement,setting,value
COC(=O)C1=CCC(NC(=O)C2(C)CN(c3cc(F)cc(Cl)c3)C(=O)O2)C1 (stereo not drawn) [Compound 140],"Oat, Wild plant response rating (0-100)",[1]; [28],90
same,"Oat, Wild plant response rating (0 to 100 scale)",[1]; [29],60
same,Wheat plant response rating (0-100),[2]; [28],90
same,Wheat plant response rating (0 to 100 scale),[2]; [29],80
same,Ragweed plant response rating (0-100),[3]; [28],70
same,Ragweed plant response rating (0 to 100 scale),[3]; [29],50
same,Corn plant response rating (0-100),corn (Zea mays) [4]; [28],100
same,Corn plant response rating (0 to 100 scale),corn (Zea mays) [4]; [29],100
same,Horseweed plant response rating (0-100),[5]; [28],90
same,Horseweed plant response rating (0 to 100 scale),[5]; [29],80
same,Galium plant response rating (0-100),[6]; [28],90
same,Galium plant response rating (0 to 100 scale),[6]; [29],70
same,Kochia plant response rating (0-100),kochia (Bassia scoparia) [7]; [28],90
same,Kochia plant response rating (0 to 100 scale),kochia (Bassia scoparia) [7]; [29],90
same,Soybean plant response rating (0-100),soybean (Glycine max) [8]; [28],70
same,Soybean plant response rating (0 to 100 scale),soybean (Glycine max) [8]; [29],70
same,Barnyardgrass plant response rating (0-100),[9]; [28],100
same,Barnyardgrass plant response rating (0 to 100 scale),[9]; [29],100
same,"Foxtail, Green plant response rating (0-100)",[10]; [28],90
same,"Foxtail, Green plant response rating (0 to 100 scale)",[10]; [29],90
same,Blackgrass plant response rating (0-100),[11]; [28],100
same,Blackgrass plant response rating (0 to 100 scale),[11]; [29],90
same,"Ryegrass, Italian plant response rating (0-100)",[12]; [28],80
same,"Ryegrass, Italian plant response rating (0 to 100 scale)",[12]; [29],60
same,"Pigweed, Palmer plant response rating (0-100)",[13]; [28],80
same,"Pigweed, Palmer plant response rating (0 to 100 scale)",[13]; [29],60
same,"Plant response rating, Barnyardgrass (0 to 100 scale, 0 is no effect and 100 is complete control)",[14],85
same,"Plant response rating, Sedge, Umbrella (0 to 100 scale, 0 is no effect and 100 is complete control)",[15],100
same,"Plant response rating, Rice (0 to 100 scale, 0 is no effect and 100 is complete control)",rice (Oryza sativa),65
same,"Plant response rating, Ducksalad (0 to 100 scale, 0 is no effect and 100 is complete control)",[16],65
same,"Oat, Wild plant response rating","[17]; 16 g ai/ha, 0 to 100 scale",20
same,"Oat, Wild plant response rating (0-100)",[17]; [30],20
same,Wheat plant response rating,"[18]; 16 g ai/ha, 0 to 100 scale",40
same,Wheat plant response rating (0-100),[18]; [30],80
same,Ragweed plant response rating,"[19]; 16 g ai/ha, 0 to 100 scale",0
same,Ragweed plant response rating (0-100),[19]; [30],0
same,Corn plant response rating,"corn (Zea mays) [20]; 16 g ai/ha, 0 to 100 scale",10
same,Corn plant response rating (0-100),corn (Zea mays) [20]; [30],60
same,Kochia plant response rating,"kochia (Bassia scoparia) [21]; 16 g ai/ha, 0 to 100 scale",50
same,Kochia plant response rating (0-100),kochia (Bassia scoparia) [21]; [30],100
same,Soybean plant response rating,"soybean (Glycine max) [22]; 16 g ai/ha, 0 to 100 scale",0
same,Soybean plant response rating (0-100),soybean (Glycine max) [22]; [30],80
same,Barnyardgrass plant response rating,"[23]; 16 g ai/ha, 0 to 100 scale",50
same,Barnyardgrass plant response rating (0-100),[23]; [30],100
same,"Foxtail, Green plant response rating","[24]; 16 g ai/ha, 0 to 100 scale",80
same,"Foxtail, Green plant response rating (0-100)",[24]; [30],90
same,Blackgrass plant response rating,"[25]; 16 g ai/ha, 0 to 100 scale",0
same,Blackgrass plant response rating (0-100),[25]; [30],50
same,"Ryegrass, Italian plant response rating","[26]; 16 g ai/ha, 0 to 100 scale",50
same,"Ryegrass, Italian plant response rating (0-100)",[26]; [30],90
same,"Pigweed, Palmer plant response rating (0-100)",[27],90
